In US20240315315A1, “COMPOSITION AND METHOD FOR SUPPRESSING PERCEPTION OF SMOKE OR VAPOR ODOR AND FOR SMOKING OR VAPING CESSATION” (University of Kentucky Research Foundation, priority 2023, published 2024):
“Also recorded” adds a separate entry of the source. Read-outs that look alike come from different tables or passages of the source.

How the values were obtained:
[1] = tested on: perception of 1-pentanethiol; test: Split-nostril testing with 1-pentanethiol (physical vs dichorhinic mixtures); format: in vivo, human; settings: for sex comparison of the effect on perceived intensity of 1-pentanethiol: males vs females, citronellal as physical mixture, pentanol as dichorhinic mixture; for perceived pleasantness of mixtures with 1-pentanethiol: isointense amounts mixed in air (N=29)
Experimental: In all experiments each subject was presented with odor samples in a unique random order. Subjects were instructed to take a single inhalation of each sample. Samples were separated by rest periods of at least 50 sec to minimize adaptation. Target odorants (1-pentanethiol or guaiacol) were sampled thrice by each subject prior to the initiation of an experiment. Dilutions of odorants (0.1-, 0.01-, 0.001-, and 0.0001-fold) were prepared in 10 ml of mineral oil in 250 ml brown Boston round bottles. To mimic the conditions of split-nostril testing, each dilution bottle was paired with a bottle containing 10 ml of mineral oil, with both bottles connected to the same Teflon nozzle. Control samples consisted of pairs of bottles containing 10 ml of mineral oil connected to a Teflon nozzle. Subjects simultaneously sniffed from two nozzles, either an odor dilution through one nostril and a control through the other nostril, or controls through both nostrils. Each subject (n=7-9) sniffed a unique random order of dilutions, rating intensity on a scale of 1-10. Dilutions that gave average intensities in the range of 4-5 were selected. Subjects simultaneously sniffed from two pairs of bottles, one pair per nostril. Treatment samples included no odorant controls and target odorants (1-pentanethiol or guaiacol) presented alone or mixed in air with masking odorants. Subjects experienced every sample four times, balanced so that pairings of odors were given twice per nostril, with the exception of the no odor control (10 ml of mineral oil in each bottle), which was presented twice. Subjects rated intensity on a gLMS scale (0-100) via a graphical user interface on a computer, followed by rating pleasantness on a linear scale of −10 to +10. Redjade software was used to produce unique random orders for each subject and to collect intensity and pleasantness ratings. Exclusion criteria were ratings of 0 on >25% of treatments (to exclude hyposmic subjects) and a Pearson correlation coefficient of <35% on test-retest across all treatments. To discriminate peripheral versus CNS odor interaction effects a split-nostril experiment was performed where odorants delivered simultaneously to different nostrils (dichorhinic mixture) can only affect perception via central nervous system (CNS) circuits versus odorants delivered together to the same nostril (physical mixture) where they can affect perception via both peripheral effects and central effects (FIG. 3A). Furthermore, by mixing the odorants in air there is an elimination of reduced volatilization of 1-pentanethiol as a cause of perception of reduced intensity.

perception of guaiacol [2] = test: Preliminary screen of odorants with guaiacol (physical mixtures in air); format: in vivo, human
Experimental: (§1) In all experiments each subject was presented with odor samples in a unique random order. Subjects were instructed to take a single inhalation of each sample. Samples were separated by rest periods of at least 50 sec to minimize adaptation. Target odorants (1-pentanethiol or guaiacol) were sampled thrice by each subject prior to the initiation of an experiment.
(§2) Dilutions of odorants (0.1-, 0.01-, 0.001-, and 0.0001-fold) were prepared in 10 ml of mineral oil in 250 ml brown Boston round bottles. To mimic the conditions of split-nostril testing, each dilution bottle was paired with a bottle containing 10 ml of mineral oil, with both bottles connected to the same Teflon nozzle. Control samples consisted of pairs of bottles containing 10 ml of mineral oil connected to a Teflon nozzle. Subjects simultaneously sniffed from two nozzles, either an odor dilution through one nostril and a control through the other nostril, or controls through both nostrils. Each subject (n=7-9) sniffed a unique random order of dilutions, rating intensity on a scale of 1-10. Dilutions that gave average intensities in the range of 4-5 were selected.
In preliminary screening only physical mixtures were tested. Air mixing was achieved by attaching pairs of 250 ml brown Boston round bottles, one containing the candidate antagonist odorant and the other the target odorant, to a single nozzle. Controls consisted of pairs of bottles, each containing 10 ml of mineral oil, connected to the same Teflon nozzle. Subjects simultaneously sniffed from two nozzles, either a physical mixture through one nostril and the control through the other nostril, or controls through both nostrils. Each sample was repeated so that each physical mixture was sniffed through the left and right nostrils. Each subject sniffed a unique random order of the samples, rating intensity on a scale of 1-10 using Google forms.
(§3) Like 1-pentanethiol, guaiacol is a key odorant in cigarette smoke and is one of the most important components of a simple mimic of cigarette smoke odor. […] A split-nostril experiment was performed to test these hypotheses and determine whether effects were peripheral or central. […] It was confirmed that effects of the physical and dichorhinic mixtures differed by comparing within-subject responses (FIG. 5B).

perception of guaiacol [3] = test: Split-nostril testing with guaiacol (physical vs dichorhinic mixtures); format: in vivo, human; settings: for perceived pleasantness of mixtures with guaiacol: compared with guaiacol alone; for effect on perceived intensity of guaiacol: physical mixture (same nostril) vs dichorhinic mixture
Experimental: as §1, §2
Subjects simultaneously sniffed from two pairs of bottles, one pair per nostril. Treatment samples included no odorant controls and target odorants (1-pentanethiol or guaiacol) presented alone or mixed in air with masking odorants. Subjects experienced every sample four times, balanced so that pairings of odors were given twice per nostril, with the exception of the no odor control (10 ml of mineral oil in each bottle), which was presented twice. Subjects rated intensity on a gLMS scale (0-100) via a graphical user interface on a computer, followed by rating pleasantness on a linear scale of −10 to +10. Redjade software was used to produce unique random orders for each subject and to collect intensity and pleasantness ratings. Exclusion criteria were ratings of 0 on >25% of treatments (to exclude hyposmic subjects) and a Pearson correlation coefficient of <35% on test-retest across all treatments.
as §3

[4] = tested on: perception of 1-pentanethiol; test: Preliminary screening for masking of 1-pentanethiol (solution mixtures on cotton balls, intensity and pleasantness ratings); format: in vivo; settings: solution mixture screen, both odorants in the same cotton ball, human subjects (n=24)
Source text: In all experiments each subject was presented with odor samples in a unique random order. Subjects were instructed to take a single inhalation of each sample. Samples were separated by rest periods of at least 50 sec to minimize adaptation. Target odorants (1-pentanethiol or guaiacol) were sampled thrice by each subject prior to the initiation of an experiment. Dilutions (0.1-, 0.01-, 0.001-, and 0.0001-fold) of candidate masking odorants and the key cigarette smoke odorant 1-pentanethiol were prepared in dimethyl sulfoxide. Subjects (5 male and 7 female) sniffed 0.4 ml volumes absorbed in cotton balls from 0.8 ml brown glass vials and rated intensity on a scale of 1-10. Dilutions that gave average intensities in the range of 4-5 were selected for screening tests in which subjects rated intensity on a scale of 1-100 using a paper form. Subjects also rated whether the overall odor of each sample was pleasant or unpleasant (a forced-choice test). Seventeen (17) odorants commonly used as general masking odors or previously tested as cigarette additives designed to improve the perceived pleasantness of cigarette smoke were screened. […] While efficient for screening odorants, the mixing approach used (soaking of both odorants into the same cotton ball) fails to implicate mechanism because it may allow three potential causes for perception of reduced intensity of a target odor: CNS effects where circuit interactions lead to perception of reduced intensity, peripheral effects such as receptor antagonism, and (potentially) reduced volatilization of 1-pentanethiol. Further experiments were required to determine which of these causes explain the effect of citronellal.

[5] = dichorhinic mixture, odorants delivered to different nostrils
[6] = physical mixture delivered to the same nostril, mixed in air
[7] = listed as Methyl-2-methylbutyrate

CCCCCS [1-pentanethiol]
perceived pleasantness of the odorant alone ([1]; split-nostril experiment): moderately unpleasant

C=CC(C)(O)CCC=C(C)C (centres unmarked) [Linalool, reference compound]
interaction with guaiacol (perceived intensity) (perception of guaiacol [2]): three largest interactions
perceived pleasantness of mixtures with guaiacol (perception of guaiacol [3]): no effect of perceived pleasantness

CCCC(O)CCC1C(C)CCCC1(C)C (centres unmarked) [Norlimbanol, reference compound]
interaction with guaiacol (perceived intensity) (perception of guaiacol [2]): three largest interactions
perceived pleasantness of mixtures with guaiacol (perception of guaiacol [3]): no effect of perceived pleasantness

CC(C)=CCCC(C)CC=O (centres unmarked) [citronellal]
effect on perceived intensity of 1-pentanethiol [4]: most effective at reducing the perceived intensity of 1-pentanethiol; also recorded: strongest effect
effect on perceived intensity of 1-pentanethiol ([4]; listed as Citronellal): most effective masking odor
effect on perceived intensity of 1-pentanethiol [1, 5]: did not affect the perceived intensity of 1-pentanethiol
within-subject comparison of perceived 1-pentanethiol, physical vs dichorhinic mixtures ([1]; female participants): showed no difference
within-subject comparison of perceived 1-pentanethiol, physical vs dichorhinic mixtures ([1]; male participants): nearly all males perceived less 1-pentanethiol in physical mixtures
sex comparison of the effect on perceived intensity of 1-pentanethiol [1]: stronger in males than in females
effect on perceived intensity of 1-pentanethiol [1, 6]: reduced the perceived intensity of 1-pentanethiol; also recorded: suppress perception
effect on perceived intensity of 1-pentanethiol ([1]; physical mixture delivered to the same nostril, mixed in air, listed as Citronellal): decreases the perceived intensity of 1-pentanethiol only when delivered as a physical mixture
perceived pleasantness of mixtures with 1-pentanethiol ([1]; split-nostril experiment): improved pleasantness; also recorded: neither pleasant nor unpleasant on average; also recorded: alleviated

CCOC(=O)C(C)CC (centres unmarked) [ethyl-2-methylbutyrate, Ethyl 2-methylbutyrate]
interaction with guaiacol (perceived intensity) (perception of guaiacol [2]): promising effects

CCC(C)C(=O)OC (centres unmarked) [methyl-2-methylbutyrate, methyl 2-methylbutyrate]
interaction with guaiacol (perceived intensity) (perception of guaiacol [2]): promising effects
interaction with guaiacol (perceived intensity) (perception of guaiacol [2]; [7]): three largest interactions
perceived pleasantness of mixtures with guaiacol (perception of guaiacol [3]): no effect of perceived pleasantness
effect on perceived intensity of guaiacol in a physical mixture (perception of guaiacol [3]; male participants (N=6)): significant decrease
effect on perceived intensity of guaiacol (perception of guaiacol [3]): suppressed perception of guaiacol, but only when applied via the same nostril as a physical mixture; also recorded: suppress perception
effect on perceived intensity of guaiacol (perception of guaiacol [3]; [7]): decreases the perceived intensity of guaiacol

CCCCCO [pentanol]
effect on perceived intensity of 1-pentanethiol [4]: no effect on perception of 1-pentanethiol
effect on perceived intensity of 1-pentanethiol [1, 5]: increased the perceived intensity of 1-pentanethiol; also recorded: increases the perceived intensity of 1-pentanethiol only when delivered a dichorhinic mixture
effect on perceived intensity of 1-pentanethiol ([1]; dichorhinic mixture, odorants delivered to different nostrils, listed as 1-pentanol): additive effect mediated centrally
sex comparison of perceived pleasantness of mixtures with 1-pentanethiol ([1]; females (N=19) vs males (N=10)): less pleasant than did males; also recorded: more unpleasant than did males
sex comparison of the effect on perceived intensity of 1-pentanethiol [1]: apparent in both sexes, but appeared slightly stronger in females
effect on perceived intensity of 1-pentanethiol [1, 6]: did not result in any reduction in the perceived intensity of 1-pentanethiol
perceived pleasantness, dichorhinic vs physical mixtures with 1-pentanethiol ([1]; split-nostril experiment (N=29)): less pleasant than physical mixtures; also recorded: more unpleasant than physical mixtures
perceived pleasantness of mixtures with 1-pentanethiol ([1]; split-nostril experiment): did not improve perceived pleasantness; also recorded: little affected
